Measurements published in patent US4650812A, “4-oxo-3,4-dihydro-2H-1-benzopyranyloxy alkanoic acid derivatives” (Hoffmann-La Roche Inc., priority 1985, dated 1987).
Like-named read-outs stand apart in the source and are kept apart here.

Tests used:
[1] = test system: LTD4; assay: Oral Testing of Leukotriene Antagonists (guinea pig, SRS-A antagonism); assay type: in vivo, guinea pig (Hartley strain, Charles River); settings: 10 mg/kg P.O., two hours prior to challenge with leukotriene
Method: (c) Oral Testing of Leukotriene Antagonists
Male guinea pigs (Hartley strain, Charles River) weighing 400 to 600 g were anesthetized with urethane (2 g/kg) intraperitoneally and a polyethylene cannula was inserted into the jugular vein for intravenous drug administration. Tracheal pressure (cm water) was recorded from a Statham pressure transducer. After surgical preparation of the animals, a period of time was allowed for spontaneous breathing to stabilize. […] Two minutes later, spontaneous breathing was arrested with succinylcholine chloride (1.2 mg/kg, i.v.) and the animals ventilated with a Harvard (Model #680) small animal respirator set at 40 breaths per minute and 4.0 cc stroke volume. The animals were challenged with a maximum constrictory dose of either leukotriene C4 or leukotriene D4 or leukotriene E4 ([…], i.v.) at 5 minutes. Control vehicle or test drug (adjusted to an alkaline pH where necessary for drug solubilization) was administered (10 mg/kg, p.o) two hours prior to challenge with leukotriene. In order to determine the ID50 for a test drug, the dose is varied from 10 mg/kg, p.o. to 100, 50, 30, 20, 5, 3 and 1 mg/kg. p.o.
In order to determine oral duration of action, the time between exposure to test drug and challenge with leukotriene is varied.
In test procedure (c), the compounds listed in Table III were tested by this oral procedure, and the results obtained are also set out in Table III.

[2] = test system: SRS-A induced constriction of the guinea pig ileum; assay: Guinea Pig Ileum, In Vitro (SRS-A antagonism); assay type: cell-based; settings: Cavia porcellus
Method: (a) Guinea Pig Ileum, In Vitro:
The guinea pig ileum biassay system has been described by Orange Austen, Adv. Immunol. 10: 105-144 (1969). A 1.5 cm segment is removed from animals weighing 300-400 g and suspended in an organ bath containing 10 ml of Tyrodes solution with 10^-6 M atropine sulfate and 10^-6 M pyrilamine maleate. The bath is maintained at 37° C. and aerated with a mixture of 95% oxygen and 5% carbon dioxide. The SRS-A utilized in this screen is obtained by challenging chopped lung fragments from actively sensitized guinea pigs with egg albumin, in vitro. A dose-response curve to SRS-A challenge is established for the ileum. The dose of SRS-A which given 50% of the maximal contraction (EC50) is then used for subsequent challenge. The drug concentration which inhibits, by 50%, the SRS-A induced constriction of the guinea pig ileum is determined.

[3] = test system: leukotriene E4; assay: Guinea Pig Bronchoconstriction, In Vivo (Aerosol) (SRS-A antagonism); parameters: species or system guinea pig (Hartley strain); settings: leukotriene E4 i.v. challenge; for In vivo-aerosol IC50: 5 min exposure, % (w/v) conc.
Method: (b) Guinea Pig Bronchoconstriction, In Vivo (Aerosol):
Male guinea pigs (Hartley strain) weighing 300 to 500 g are anesthetized with urethane (2 g/kg) intraperitoneally and a polyetylene cannula is inserted into the jugular vein for drug administration. Tracheal pressure is recorded from a cannula inserted in the trachea and connected to a Statham pressure transducer. After surgical preparation of the animals, a period of time is allowed from pulmonary functions to stabilize. The test compound is administered according to the following protocol. Propanolol (0.1 mg/kg) is administered intravenously while the animals breathed spontaneously. Five minutes thereafter, the animals are exposed for a five minute period to a 1% (w/v) aerosol solution of test compound (adjusted to an alkaline pH where necessary for drug solubilization) or to distilled water of the appropriate pH (for control purposes). A Monaghan (Model 750) ultrasonic nebulizer is used to administer all test compounds by inhalation. The nebulizer ultrasonic frequency is adjusted to produce particles in the 1-8μ diameter range (average 3μ). Aqueous solutions are prepared freshly and introduced into the chamber of the nebulizeer. The output of the nebulizer is made available to the animal by directing a bias flow of aerosol through a Y tube connected to the tracheal cannula. At the end of the exposure period, the animals are paralyzed with succinylcholine (1.2 mg/kg, i.v.) and mechanically respirated (Harvard rodent respirator) at 40 breaths/minute and 2.5 cc tidal volume. […]
The change (cm H2 O) between pre and peak ventilatory pressure readings averaged for three control animals and five drug treated animals. The percent inhibition is calculated from the following formula: [formula] When various drug concentrations are tested, the percent inhibition at each concentration is plotted as log concentration (abscissa) versus percent inhibition (ordinate) and the IC50 is determined from linear regression analysis.

[4] = SRS-A challenge at EC50, Table I, read-out: In vitro G.P. ileum IC50

With `CCCc1c(OCCCCC2(C)CC(=O)c3ccc(OCCCC(=O)OCC)c(CCC)c3O2)ccc(C(C)=O)c1O` (racemic) [rac.-4-[2-[4-(4-acetyl-3-hydroxy-2-propylphenoxy)butyl]-3,4-dihydro-2-methyl-4-oxo-8-propyl-2H-1-benzopyran-7-yl]oxy]butanoic acid ethyl ester] the “% Inhib. of LTD4” value [1] was 38 ± 7%.

With `CCCc1c(OCCCCC2(C)CC(=O)c3ccc(OCCCC(=O)O)cc3O2)ccc(C(C)=O)c1O` (racemic) [rac.-4-[[2-[4-(4-acetyl-3-hydroxy-2-propylphenoxy)butyl]-3,4-dihydro-2-methyl-4-oxo-2H-1-benzopyran-7-yl]oxy]butanoic acid] the IC50 [2, 4] was 3000 nM.

Work on `CCCc1c(OCCCCC2(C)CC(=O)c3ccc(OCCCC(=O)O)c(CCC)c3O2)ccc(C(C)=O)c1O` (racemic) [rac.-4-[[2-[4-(4-acetyl-3-hydroxy-2-propylphenoxy)butyl]-3,4-dihydro-2-methyl-4-oxo-8-propyl-2H-1-benzopyran-7-yl]oxy]butanoic acid] yielded an IC50 [2, 4] of 1000 nM.

For `CCCc1c(OCCCCC2(C)CC(=O)c3ccc(OCC(=O)O)c(CCC)c3O2)ccc(C(C)=O)c1O` (racemic) [rac.-[2-[4-(4-acetyl-3-hydroxy-2-propylphenoxy)butyl]-3,4-dihydro-2-methyl-4-oxo-8-propyl-2H-1-benzopyran-7-yl]oxy]acetic acid], the IC50 [2, 4] was 2000 nM.

For `CCCc1c(OCCCCC2(C)CC(=O)c3ccc(OCC(=O)OC)cc3O2)ccc(C(C)=O)c1O` (racemic) [rac.-[[2-[4-(4-acetyl-3-hydroxy-2-propylphenoxy)butyl]-3,4-dihydro-2-methyl-4-oxo-2H-1-benzopyran-7-yl]oxy]acetic acid methyl ester], the “% Inhib. of LTD4” value [1] was 47 ± 5%.

`CCCc1c(OCCCCC2(C)CC(=O)c3ccc(OCC(=O)O)cc3O2)ccc(C(C)=O)c1O` (racemic) [rac.-[[2-[4-(4-acetyl-3-hydroxy-2-propylphenoxy)butyl]-3,4-dihydro-2-methyl-4-oxo-2H-1-benzopyran-7-yl]oxy]acetic acid] showed an IC50 [2, 4] of 5000 nM.

`CCCc1c(OCCCCC2(C)CC(=O)c3ccc(OCC(=O)OC)c(CCC)c3O2)ccc(C(C)=O)c1O` (racemic) [rac.-[[2-[4-(4-acetyl-3-hydroxy-2-propylphenoxy)butyl]-3,4-dihydro-2-methyl-4-oxo-8-propyl-2H-1-benzopyran-7-yl]oxy]acetic acid methyl ester] was tested, and the “% Inhib. of LTD4” value [1] was 25 ± 12%.

`CCCc1c(OCCCCC2CC(=O)c3ccc(OCC(=O)O)c(CCC)c3O2)ccc(C(C)=O)c1O` (racemic) [rac.-[[2-[4-(4-acetyl-3-hydroxy-2-propylphenoxy)butyl]-3,4-dihydro-4-oxo-8-propyl-2H-1-benzopyran-7-yl]oxy]acetic acid] was tested, and the IC50 [2, 4] was 500 nM and the “In vivo-aerosol % inhib. at (% conc.)” value ([3]; at 0.1 % conc.) was 34.1 ± 8%.

With `CCCc1c(OCCCCCCC2(C)CC(=O)c3ccc(OCC(=O)O)c(CCC)c3O2)ccc(C(C)=O)c1O` (racemic) [rac.-[[2-[6-(4-acetyl-3-hydroxy-2-propylphenoxy)hexyl]-3,4-dihydro-2-methyl-4-oxo-8-propyl-2H-1-benzopyran-7-yl]oxy]acetic acid] the IC50 [2, 4] was 500 nM and the “In vivo-aerosol IC50” value [3] was 0.26%.

`CCCc1c(OCCCCCCC2CC(=O)c3ccc(OCC(=O)O)c(CCC)c3O2)ccc(C(C)=O)c1O` (racemic) [rac.-[[2-[6-(4-acetyl-3-hydroxy-2-propylphenoxy)hexyl]-3,4-dihydro-4-oxo-8-propyl-2H-1-benzopyran-7-yl]oxy]acetic acid] was tested, and the IC50 [2, 4] was 300 nM and the “In vivo-aerosol IC50” value [3] was 0.32%.

In the case of `CCCc1c(OCC(O)Cc2ccc3c(=O)cc(C(=O)O)oc3c2CCC)ccc(C(C)=O)c1O` (centres unmarked) [7-[3-(4-acetyl-3-hydroxy-2-propylphenoxy)-2-hydroxypropyl]-4-oxo-8-propyl-4H-1-benzopyran-2-carboxylic acid, reference compound], the IC50 ([2]; SRS-A challenge at EC50, read-out: IC50 of the standard SRS-A antagonist) is reported as 35 nM.
